Results reported in paper PMC11249646, “Small-Molecule Disruptors of the Interaction between Calcium- and Integrin-Binding Protein 1 and Integrin αIIbβ3 as Novel Antiplatelet Agents” (ACS Pharmacology & Translational Science, 2024).
Read-outs that look alike come from different tables or passages of the source.

Molecular target: T1, CIB1 and αIIb interaction (CIB1-GST : F-αIIb peptide) (Homo sapiens, UniProt Q99828)
T1 construct: made in house; host or cells: BL-21 plus RIL cells (E. coli)
T1 sequence (Q99828 1-191): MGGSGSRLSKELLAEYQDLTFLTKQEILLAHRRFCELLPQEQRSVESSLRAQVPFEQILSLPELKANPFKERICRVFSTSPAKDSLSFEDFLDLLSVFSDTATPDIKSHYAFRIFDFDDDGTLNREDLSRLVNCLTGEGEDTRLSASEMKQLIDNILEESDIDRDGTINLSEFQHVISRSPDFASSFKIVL
Assay: FP assay, 1536-well qHTS format (primary and confirmatory screen)
Format: binding
Details: for Efficacy (%): negative = inhibition; for Curve Class: negative sign = inhibitory curve; for IC50: read-out: IC50

[1] = qHTS primary screen hits, Table S2
[2] = qHTS primary screen hits, Table S2, several classes where COUNT > 1
[3] = qHTS primary screen of LOPAC/NPACT libraries

| Compound | Efficacy (%) [1] | Curve Class [2] | IC50 [1] | further results |
| --- | --- | --- | --- | --- |
| COc1ccc(/C=C/C(=O)Nc2ccccc2C(=O)O)cc1OC [NCGC00018185-09] | -29% | -2.2 | 39.8 µM |  |
| CC1=NN(c2ccccc2)C(=O)C1 [NCGC00018218-10] | -46% | -2.2 | 50.1 µM |  |
| Cc1nnc(SCC2=C(C(=O)O)N3C(=O)[C@@H](NC(=O)Cn4cnnn4)[C@H]3SC2)s1 [NCGC00022653-06] |  |  |  | Efficacy (%) [3]: -21% |
| CO[C@@]1(NC(=O)CSCC#N)C(=O)N2C(C(=O)[O-])=C(CSc3nnnn3C)CS[C@@H]21.[Na+] [NCGC00023016-07] | -29% | -2.4 | 50.1 µM |  |
| Cc1ccc(Cl)c(Nc2ccccc2C(=O)O)c1Cl [NCGC00023217-06] | -57% |  | 44.7 µM | Curve Class [1]: -2.2 |
| CC[C@@H](CO)NC(=O)[C@@H]1C=C2c3cccc4c3c(cn4C)C[C@H]2N(C)C1 [NCGC00024027-09] |  |  |  | Efficacy (%) (qHTS FP screen hits, Table S2): -89%; Curve Class (qHTS FP screen hits, Table S2, one class per curve where COUNT > 1): -2.2; IC50 (qHTS FP screen hits, Table S2): 44.7 µM |
| COc1cccc2c1C(=O)c1c(O)c3c(c(O)c1C2=O)C[C@@](O)(C(C)=O)C[C@@H]3O[C@H]1C[C@H](N)[C@H](O)[C@H](C)O1 [NCGC00024246-15] | -61% |  | 15.2 µM |  |
| CNC[C@H](O)c1cccc(O)c1 [NCGC00024257-06] | -15% | -1.2 | 5.6 µM |  |
| CS(=O)(=O)O.CSc1ccc2c(c1)C(N1CCN(C)CC1)Cc1ccccc1S2 (centres unmarked) [NCGC00024665-06] |  |  |  | Efficacy (%) [3]: -28%; Curve Class [3]: -2.4; IC50 [3]: 56.2 µM |
| C[C@](N)(Cc1ccc(O)c(O)c1)C(=O)O [NCGC00024667-14] | -24% | -2.4 | 89.1 µM |  |
| CC(=O)N[C@@H](Cc1c[nH]c2ccccc12)C(=O)OCc1cc(C(F)(F)F)cc(C(F)(F)F)c1 [NCGC00024832-04] |  |  |  | Efficacy (%) [3]: -16%; Curve Class [3]: -1.2; IC50 [3]: 39.8 µM |
| O=C(Nc1cccc(C(=O)Nc2ccc(S(=O)(=O)O)c3cc(S(=O)(=O)O)cc(S(=O)(=O)O)c23)c1)Nc1cccc(C(=O)Nc2ccc(S(=O)(=O)O)c3cc(S(=O)(=O)O)cc(S(=O)(=O)O)c23)c1 [NCGC00025069-04] |  |  |  | Efficacy (%) [3]: -37%; Curve Class [3]: -1.4; IC50 [3]: 0.316 µM |
| CC(=O)c1c(O)c(C)c(O)c(Cc2c(O)c3c(c(C(=O)/C=C/c4ccccc4)c2O)OC(C)(C)C=C3)c1O [NCGC00025228-08] | -45% |  | 28.2 µM | Curve Class [1]: -1.2 |
| Oc1ccccc1C1Nc2cccc3cccc(c23)N1 [NCGC00026112-04] | -42% |  | 56.2 µM | Curve Class [1]: -2.2 |
| Cc1ccc(C)n1-c1cccc(C(=O)O)c1.O=C(O)C(F)(F)F [NCGC00060597-04] |  |  |  | Efficacy (%) (qHTS FP screen hits, Table S2): -32%; IC50 (qHTS FP screen hits, Table S2): 32.3 µM |
| Cc1cc(N2CCN(c3ccccc3)CC2)nc(-n2nc(C)cc2C)n1.O=C(O)C(F)(F)F [NCGC00067399-02] | -30% |  | 56.2 µM | Curve Class [1]: -2.4 |
| O=S1(=O)N=C(Oc2ccccc2)c2ccccc21 [NCGC00079022-02] | -23% | -2.4 | 79.4 µM |  |
| NC(=O)N/N=C/c1ccc([N+](=O)[O-])o1 [NCGC00090686-07] | -26% |  | 112 µM | Curve Class [1]: -2.4 |
